The results in this text go back to patent US12433892B2, “Compositions and methods of treatment for neurological disorders comprising depression” (Gliapharm SA, priority 2018, dated 2025).

Assay [1] deals with astrocytes. The experiment in a line: Extracellular lactate quantification. In kind it is cell-based, mouse. Also noted: Score_LACTATE / Score Lact.: scale not given here. The note with it: Appendix II; for pEC50: Mus musculus, Astrocyte, lactate secretion. How it is done: Primary cultures of cerebrocortical astrocytes were obtained from 1-2-day-old OF1 mouse pups (Charles River Laboratories). Briefly, cortices were isolated and minced in small pieces under a dissecting microscope. The cells were incubated for 30 min at 37° C. in a solution containing 20 U/ml of papain enzyme (Worthington Biochemical), L-cysteine 1 mM (Sigma), and 10 kU/ml DNase I (Worthington Biochemical) for an enzymatic dissociation. Papain activity was stopped by the addition of fetal calf serum (FCS) to the solution, and a single-cell suspension was then obtained by mechanical dissociation, which consisted in cells trituration in a DMEM (D7777, Sigma-Aldrich) medium (supplemented with 44 mm NaHCO3, and 10 ml/L antibiotic/antimycotic solution) containing 10% FCS. The cells were seeded at an average density of 6×10^4 cells/cm^2 in poly-D-lysine-coated 96, 12 or 6-well culture plates, depending on their use, and incubated at 37° C. in a humidified atmosphere containing 5% CO2/95% air. Culture medium was renewed twice per week. Cells were stimulated and harvested between DIV14 and DIV17, when confluence and cell growth were optimal.
Secretion of L-lactate was determined in the extracellular medium of 96-well plated astrocytes after 90 min stimulation (at 37° C., in 5% CO2/95% air conditions) with the drug of interest. The stimulation medium was composed of D5030 medium (completed with D-glucose 5 mM and 44 mM sodium bicarbonate) for 90 min in concentrations ranging from 0 to 100 μM.
Briefly, 200 μl of a Glycine (Sigma)-Semicarbazide (Acros) 0.2M pH 10 buffer containing 3 mM NAD (Roche) and LDH 14 U/ml (Roche) was added to each well of a 96-well plate containing 30 μl aliquots complemented with 20 μl fresh complete D5030 medium. Samples were incubated at 37° C. for 1 h. After samples cooled down at room temperature, the fluorescence intensity (340 nm excitation/450 nm emission) that represents the amount of NADH produced was measured, and lactate concentration values were determined from a standard curve of L-lactate.
(§1) Statistical analysis consisted in ANOVA followed by Fisher LSD post-hoc test for pair-wise comparisons.
Levels of lactate secreted by astrocytes were measured in the extracellular medium at 90 min after stimulation with hits (molecules) from the CDC54K library.

Assay [2] concerns astrocytes. The experiment in a line: Intracellular glycogen quantification. In kind it is cell-based, mouse. The note with it: Prestwick hits; 10 uM, 3 h. How it is done: For glycogen dosage, a protein dosage was first performed in order to assess whether harvested astrocytes from primary cell cultures yielded enough and equivalent amounts of proteins comparing each replicate, and to ensure that the obtained differences in glycogen quantities were due to drug action and not to inner protein quantities.
Astrocytes used for these dosages were previously grown in 6-well plates for 17 days and stimulated with Vehicle (DMSO) or drug of interest (1 μM to 100 μM) for 180 min, at 37° C. 5% CO2/95% air in D5030 complete medium. Medium was removed and replaced with 600 μl of 30 mM Tris HCl, and stored at −20° C.
Proteins were dosed using the micro BCA Protein Assay kit (Thermo Scientific), as described in the manufacturer's instructions. Briefly, thawed cells were sonicated and 5 μl aliquots were placed in a transparent 96-well plate, to which we added 25 μl 30 mM Tris HCl, 70 μl H2O and 100 μl of a BCA mix (made as described in manufacturer's guidelines). After a 120 min-incubation at 37° C., absorbance was measured with Safire 2 spectrophotometer at a wavelength of 562 nm, and protein quantities were determined from a standard curve of Bovine Serum Albumin (BSA).
Glycogen was quantified using a 250 μl-aliquot of the same stimulated, thawed, and sonicated cells. After an incubation period of 30 min at 90° C. and 400 rpm, 28 μl of an acetic acid/sodium acetate (both from Sigma) 0.1M pH 4.6 buffer was added to each aliquot, which was then separated in two. Each split aliquot received whether 5 μl of amyloglucosidase (Roche) or 5 μl H2O, and all cell solutions were incubated for 120 min in a shaking 37° C.-waterbath. After a centrifugation at 16'000 G for 5 min, 20 μl of supernatant were placed 96-well plate, to which 150 μl of a mix containing 0.67 mM ATP (Roche), 0.67 mM NADP (Roche), 1.8% hexokinase/glucose-6-phosphate dehydrogenase (Roche) and 0.1M Tris Buffer-HCl/3.3 mM magnesium (Fluka)/pH 8.1 buffer was added. Fluorescence was measured with Safire 2 spectrophotometer (340 nm excitation/440 nm emission). Glycogen concentration was obtained by subtracting glucose value of samples with amyloglucosidase to samples without amyloglucosidase, and were expressed relative to the amount of proteins previously determined.
Levels of intracellular glycogen in astrocytes were measured at 3 h after stimulation with 20 hits from the Prestwick library (10 μM each), as shown in FIG. 2. n=6-10; Ctrl pos. is glutamate (0.5 mM). Statistical analysis consisted in ANOVA followed by Fisher LSD post-hoc test for pair-wise comparisons.
as §1

A word on the pEC50: it is the EC50 on a negative log10 scale, so that one unit is a factor of ten.

pEC50: −log10 of the molar value. Where a name gives a salt, the structure may show the parent alone.

On to `Cc1sc2nc(CSc3nc4ccccc4[nH]3)nc(N)c2c1C` [T5719257], for which the “Score Lact.” value in the assay with astrocytes [1] worked out at 0.74.
Turning to `CCCC(=O)Nc1nc(-c2ccc3c(c2)CCO3)cs1` [T5691896], the “Score Lact.” value in the assay with astrocytes [1] is 0.38.
As for `Cn1c(=O)c(N2CCC(NC(=O)Nc3cccc(Cl)c3)CC2)nc2ccccc21` [L932-0267], the “Score Lact.” value with astrocytes [1] came to 0.53.
For `CCNc1cc(C)nc(Nc2ccc(NC(=O)c3cccs3)cc2)n1` [G869-0071], the “Score Lact.” value in the assay with astrocytes [1] stood at 0.63.
For `CCC(C)NS(=O)(=O)c1ccc(Oc2ccc(C)cc2)cc1` (stereo not drawn) [T5400234], in the assay with astrocytes [1], the “Score Lact.” value amounted to 0.33.
Turning to `COc1cc(C)c(NC(=O)Cc2ccc(Cl)c(Cl)c2)cc1OC` [T5783794], the “Score Lact.” value in the assay on astrocytes [1] came to 0.44.
As for `COc1ccc(C(C)NC(=O)c2cc(=O)c3ccccc3o2)cc1F` (stereo not drawn) [T5710343], the “Score Lact.” value with astrocytes [1] was determined as 0.67.
In the case of `c1nc(NCc2ccc3c(c2)OCO3)c2sccc2n1` [T5787526], in the assay on astrocytes [1], the “Score Lact.” value amounted to 0.71.
On the same count and under the same terms, in the case of `CC(=O)Nc1cccc(NC(=O)CSc2nc(C)c(C)n2C2CCCC2)c1` [T5788339] it was 0.75.
Consider `O=c1[nH]nc(NCCOc2ccc(Br)cc2)n1C1CC1` [T533260], for which, in the assay with astrocytes [1], the “Score Lact.” value stood at 0.53 and the pEC50 is 5.16.
In the case of `COc1ccccc1NC(=O)CO/N=C(/N)c1cccc(C(F)(F)F)c1` [T5770640], the “Score Lact.” value with astrocytes [1] is 0.55.
As to `Cc1ccc(-c2c[nH]c(NC(=O)c3ccncc3)n2)cc1[N+](=O)O` [T5694329], in the assay on astrocytes [1], the “Score Lact.” value is reported as 0.47 and the pEC50 was 5.80.
`CC(C)[N+](C)(CCOC(=O)C1c2ccccc2Oc2ccccc21)C(C)C` [Propantheline bromide]: the “Glycogen (statistical significance of glycogen degradation)” value in the assay with astrocytes [2] is on record as “**** (****p<0.0001)”.
On to `COc1ccc(NS(=O)(=O)c2ccc(N3CCCCS3(=O)=O)cc2)cc1` [G508-0015], for which the “Score Lact.” value in the assay on astrocytes [1] worked out at 0.67.
Consider `CC(=O)N1CC(C)(C)c2cc(S(=O)(=O)Nc3ccc(F)cc3C)ccc21` [L302-0181], for which the “Score Lact.” value in the assay on astrocytes [1] is 0.52.
`FC(F)(F)c1cccc(CNc2ncnc3[nH]ncc23)c1` [F5285-0069]: in the assay with astrocytes [1], the “Score Lact.” value is reported as 0.36.
On to `O=C(Nc1ccc(F)c(F)c1)c1ccc(Cl)c(S(=O)(=O)N2CCCC2)c1` [T5450239], for which the “Score Lact.” value in the assay on astrocytes [1] was 0.67.
Take `Cc1nc2ccc(NC(=O)c3ccc4c(c3)CC(C)N4S(C)(=O)=O)cc2[nH]1` (stereo not drawn) [T5606387]: in the assay on astrocytes [1], the “Score Lact.” value is 0.38 and the pEC50 was 5.34.
In the case of `Cc1sc2nc(CNc3nc4ccccc4c(=O)n3C)[nH]c(=O)c2c1C` [T0517-2783], in the assay on astrocytes [1], the “Score Lact.” value is 0.46 and the pEC50 was 5.42.
For the compound `CC(C)S(=O)(=O)c1ccc(NS(=O)(=O)c2ccc(Cl)cc2)cc1` [T5311200], in the assay on astrocytes [1], the “Score Lact.” value was determined as 0.56 and the pEC50 is 5.22.
For the compound `CC(C)(C)NS(=O)(=O)c1cccc(C(=O)Nc2ccncc2)c1` [T5827594], in the assay on astrocytes [1], the “Score Lact.” value was determined as 0.71.
Consider `CCNc1cc(C)nc(Nc2ccc(NC(=O)Cc3ccccc3)cc2)c1` [G869-0064], for which, in the assay on astrocytes [1], the “Score Lact.” value is 0.54 and the pEC50 is 5.37.
`COc1cccc(C(CNc2nc(C(F)(F)F)nc3ccccc23)N(C)C)c1` (stereo not drawn) [T5800607]: the “Score Lact.” value in the assay with astrocytes [1] is recorded as 063.
`CC(COc1ccccc1)NC(C)C(O)c1ccc(O)cc1` (stereo not drawn) [Isoxsuprine hydrochloride]: the “Glycogen (statistical significance of glycogen degradation)” value in the assay with astrocytes [2] is “** (**p<0.01)”.
Regarding `CCN(CC)S(=O)(=O)c1ccc(S(=O)(=O)Nc2ccc(C)cc2C)cc1` [T5453923], in the assay on astrocytes [1], the “Score Lact.” value is listed as 0.66 and the pEC50 was 5.27.
As to `Cc1cc(/C=C/c2ccc3cc(N(C)C)ccc3[n+]2C)c(C)n1-c1ccccc1` [Pyrvinium pamoate], in the assay on astrocytes [2], the “Glycogen (statistical significance of glycogen degradation)” value is reported as “**** (****p<0.0001)”.
For `CCOc1ccc(C2(O)C(C)[N+]3=C(CCC3)N2c2ccc(OC)cc2)cc1.[Br-]` (stereo not drawn) [T0500-6629], the “Score Lact.” value with astrocytes [1] is given as 0.61.
As to `Cc1cccc(NS(=O)(=O)c2ccc(Cl)c(Cl)c2)c1` [F3394-1364], in the assay on astrocytes [1], the “Score Lact.” value came to 0.33 and the pEC50 is 5.23.
Turning to `c1ccc(CN2CCOCC2)c(CNc2ncnc3ccsc23)c1` [T5790476], the “Score Lact.” value in the assay on astrocytes [1] is reported as 0.79.
On to `CCc1ccccc1NC(=O)CN(C)c1ncnc2c1oc1ccccc12` [T5712071], for which the “Score Lact.” value in the assay on astrocytes [1] was determined as 0.8.
In the case of `N#Cc1ccc(S(=O)(=O)Nc2ccccc2C(=O)NCc2ccccc2)cc1` [T5673322], the “Score Lact.” value with astrocytes [1] stood at 0.63.
With `O=C(Nc1cccc([N+](=O)[O-])c1)c1ccc(S(=O)(=O)NCC2CCCO2)cc1` (stereo not drawn) [T6010789], in the assay with astrocytes [1], the “Score Lact.” value worked out at 1.31 and the pEC50 is 5.24.
On to `COc1ccc(NS(=O)(=O)c2cccc(NC(=O)c3cccs3)c2)cc1` [T0517-4117], for which the “Score Lact.” value in the assay with astrocytes [1] was 0.91.
Take `CCn1c(=O)c(C)nc2cc(C(=O)N(Cc3ccc(F)cc3)C3CC3)ccc21` [T5586091]: in the assay with astrocytes [1], the “Score Lact.” value amounted to 0.45.
With `CCc1ccc(S(=O)(=O)Nc2cc3c(cc2C)n(C)c(=O)n3C)cc1` [G433-0293], in the assay with astrocytes [1], the “Score Lact.” value was found to be 0.74.
As for `Clc1ccc2c(c1)CCc1cccnc1C2=C1CCNCC1` [Desloratadine], the “Glycogen (statistical significance of glycogen degradation)” value with astrocytes [2] was “* (*p<0.05)”.
`CS(=O)(=O)NC1CCN(C(=O)c2ccc(F)cc2)C1` (stereo not drawn) [Z603-8037]: the “Score Lact.” value in the assay on astrocytes [1] is on record as 0.32.
Consider `COc1ccc(NS(=O)(=O)c2cccc(NC(=O)c3ccccc3)c2)cc1` [T5274959], for which the “Score Lact.” value in the assay on astrocytes [1] was 0.68.
On to `O=S(=O)(Nc1ccc(F)cc1)c1ccc(F)c(Cl)c1` [T6947848], for which, in the assay with astrocytes [1], the “Score Lact.” value was found to be 0.98 and the pEC50 was 5.26.
As to `N#Cc1cc(C(=O)c2cc(F)ccc2O)cn(-c2ccc(F)c(Cl)c2)c1=O` [T0516-6894], the “Score Lact.” value with astrocytes [1] turned out to be 0.38.
As to `CC[N+](CC)(CC(=O)Nc1c(C)cccc1C)Cc1ccccc1` [Denatonium benzoate], in the assay on astrocytes [2], the “Glycogen (statistical significance of glycogen degradation)” value is reported as “** (**p<0.01)”.
As to `Cc1c(C)c2c(c(C)c1O)CCC(C)(COc1ccc(CC3SC(=O)NC3=O)cc1)O2` (stereo not drawn) [Troglitazone], the “Glycogen (statistical significance of glycogen degradation)” value with astrocytes [2] is listed as “*** (***p<0.001)”.
Take `CCCCOc1cc(C(=O)NCCN(CC)CC)c2ccccc2n1` [Dibucaine]: the “Glycogen (statistical significance of glycogen degradation)” value with astrocytes [2] is “* (*p<0.05)”.
With `CCc1ccc(NS(=O)(=O)c2c(C)c(-c3nnc(C4CC4)o3)n(C)c2C)cc1` [M950-1515], the “Score Lact.” value with astrocytes [1] is on record as 0.67.
